Series [1] is described as follows: Ocular pharmacokinetic test: celecoxib content in eye tissues after ocular administration. The series is classed as in vivo, New Zealand rabbit. The note with it: after ocular administration of eye drops. An excerpt: To compare the content of the active compound celecoxib in each eye tissue to screen out lead compound with excellent pharmacokinetic characteristics after the ocular administration of SZY1907-P3, SZY1907-P4 and celecoxib in New Zealand rabbits.
Grouping: 9 male New Zealand rabbits were randomly divided into 3 groups of 3 animals each.
Dosage: According to the formulation of Guangzhou Zhongshan Ophthalmic Center, the concentration of SZY1907-P3/P4 in eye drops is 0.1%. Thus, the dose of SZY1907-P3/P4 was set to 0.100 mg/New Zealand rabbit and the dose of celecoxib was 0.075 mg/New Zealand rabbit (close to the equimolar dose of SZY1907-P3/P4).
The administration method was consistent with the clinical method, which was, ophthalmic administration, and the rabbit left and right eyes were simultaneously administrated.
0.1% of SZY1907-P3 eye drops: 0.01000 g of SZY1907-P3 was weighed, 0.00500 g of Tween-80 and 0.04500 g of polyoxyethylene 40 hydrogenated castor oil were added, and stirred with a glass rod until the solution was in an emulsion shape. 5 mL of distilled water was added slowly while stirring, dissolved for later use. 0.09000 g of sodium chloride and 0.00125 g of 80% benzalkonium chloride were weighed, 2 mL of distilled water was added, and stirred to dissolve. The two solutions was combined and adjusted the volume to 10 mL. […]

The nature of series [2]: Solubility of SZY1907-P3 prototype and salt forms at different pH values.
The conditions of series [3]: Table 1; cited from earlier work.
For series [4] the following is noted: pH 7.
Series [5] is described as follows: physchem.
A short description of series [6]: Stability (purity) of the prototype at different pH values. The series is classed as physicochemical.

Values after ≈ are worked out from the molar mass of the structure shown. Read-outs that look alike come from different tables or passages of the source.

Take `Cc1ccc(-c2cc(C(F)(F)F)nn2-c2ccc(S(N)(=O)=O)cc2)cc1` [Celecoxib]: in series [1], the “Drug concentration / distribution in ocular tissues (cornea, conjunctiva and aqueous humor), in words” value is given as “relatively low”.

In general, Solubility refers to the dissolved amount per volume that the medium holds. Regarding phosphate, the Solubility in series [2] (pH value 1) amounted to 42900 µg/mL; in series [2] (pH value 2), 25720 µg/mL; in series [2] (pH value 4), 1280 µg/mL; in series [2] (pH value 6), 470 µg/mL; in series [2] (pH value 7) it was 90 µg/mL; in series [2] (pH value 8), 100 µg/mL.

Consider fumarate, for which the Pka in series [3] is 3.03. The molecule also returned a Solubility in series [4] of 90 µg/mL.

Turning to `Cc1ccc(-c2cc(C(F)(F)F)nn2-c2ccc(S(=O)(=O)NC(=O)CCN)cc2)cc1` [prototype], the Solubility in series [5] (aqueous buffer) was 100 µg/mL (≈ 221 µM); in series [5] (pH 1, simulated gastric fluid), 83500 µg/mL (≈ 184000 µM); in series [5] (pH 2, simulated gastric fluid) it was 1020 µg/mL (≈ 2250 µM); in series [5] (pH 4, aqueous buffer), 80 µg/mL (≈ 177 µM); in series [5] (pH 6, aqueous buffer), 80 µg/mL (≈ 177 µM); in series [5] (pH 7, aqueous buffer) it was 90 µg/mL (≈ 199 µM). Also, the Solubility was 80 µg/mL (≈ 177 µM) in series [5] (pH 8, aqueous buffer); 90 µg/mL in series [2] (Table 2, pH value 6.5-7.0); 100 µg/mL in series [2] (Table 2, pH value 7.0-7.5). Also, the “Purity at Day 0” value is 99.85% in series [6] (pH value 5.5-6.0), 99.88% in series [6] (pH value 6.5-7.0) and 99.81% in series [6] (pH value 7.0-7.5). Further, the “Purity at Day 1” value is given as 99.32% in series [6] (pH value 5.5-6.0), 100.00% in series [6] (pH value 6.5-7.0) and 100.00% in series [6] (pH value 7.0-7.5). Besides, the figures for the “Purity at Day 2” value in series [6] (pH value 5.5-6.0), in series [6] (pH value 6.5-7.0) and in series [6] (pH value 7.0-7.5) were 99.67%, 99.74% and 99.70%, respectively. The “Purity at Day 5” value in series [6] (pH value 5.5-6.0) is given as 99.63%; in series [6] (pH value 6.5-7.0), 99.87%; in series [6] (pH value 7.0-7.5), 99.84%.

On to `Cc1ccc(-c2cc(C(F)(F)F)nn2-c2ccc(S(=O)(=O)NC(=O)CCN)cc2)cc1` [SZY1907-P3], for which, in series [2], the “Solubility, in words” value is “proper solubility” and the “pH dependence of solubility, in words” value is “a certain pH dependence”. Besides, the “Stability under storage conditions, in words” value in series [6] is on record as “relatively stable under storage conditions”.

`CNCCC(=O)NS(=O)(=O)c1ccc(-n2nc(C(F)(F)F)cc2-c2ccc(C)cc2)cc1` [SZY1907-P4]: in series [1], the “Drug concentration / distribution in ocular tissues (cornea, conjunctiva and aqueous humor), in words” value is on record as “almost not detected”.

Turning to `NCCCCC(N)C(=O)O` (centres unmarked) [lysinate], the Pka in series [3] is 2.16. Besides, the Solubility in series [2] (pH value 1) was found to be 40470 µg/mL; in series [2] (pH value 2) it was 80 µg/mL; in series [2] (pH value 4) it was 100 µg/mL; in series [2] (pH value 6) it was 90 µg/mL; in series [2] (pH value 7), 90 µg/mL; in series [2] (pH value 8), 100 µg/mL.

The values are drawn from patent US20240182428A1, “PRODRUG OF CELECOXIB, PREPARATION METHOD THEREFOR AND APPLICATION THEREOF” (SHANGHAI INNOFORTUNE BOITECH CO. LTD., priority 2021, published 2024).
